# Results: US11969402B2, “Compositions and methods for skin rejuvenation” (THE JOHNS HOPKINS UNIVERSITY, priority 2019, dated 2024)
# Columns and labels:
# wound beds = assay: Immunostaining of healing wounds; type: in vivo, mouse; conditions: Tlr3−/− mice
# Protocol: (§1) Wound Induced Hair Neogenesis (WIHN). All experiments were followed with the present inventors' WIHN protocol^1,9. Briefly, hair was shaved and a 1.2 cm^2 full-thickness skin on the backs of 21-day old (telogen) male and female mice was removed by sterile scissors. A single treatment of RA (30 μl) (0.1 μg per mouse) (Millipore Sigma, R2625) and BMS493 (30 μl) (0.1 μg per mouse) (Cayman Chemical, #17418) was applied topically onto open wound on WD1 of Tlr3^−/− and WT mice, respectively. Poly (I:C) (50 μl) (5 μg per mouse) (Invivogen, tlrl-pic) was injected under the healed scab on WD3 of WT mice as described before^9,34. On WD20-24, numbers of regenerated hair follicles were visualized and quantified in the re-epithelialized skin by non-invasive confocal scanning laser microscopy (CSLM) (Caliber I.D., VIVASCOPE 1500) as published^1,9. As a vehicle (Control), ethanol (EtOH), dimethylsulfoxide (DMSO), or PBS was treated for RA, BMS493, and Poly (I:C), respectively.
# Immunofluorescence. […] Fluorescence images were observed by fluorescence microscopy (Leica microsystems), taken pictures with ×100 (low magnification) and ×200 (high magnification), and saved as image files.
# [1] = system: human scalp keratinocytes; assay: Retinoid levels (RA by LC-MS/MS, ROL and RE by HPLC-UV) in keratinocytes; type: cell-based
# From the text: Small interference RNA (siRNA) transfection. Human ALDH1A2 (Santa Cruz Biotechnology, sc41443), ALDH1A3 (Santa Cruz Biotechnology, sc43611), TLR3 (Dharmacon, M-007745-00), TRIF (Santa Cruz Biotechnology, sc106845), IRF3 (Santa Cruz Biotechnology, sc35710), NF-κB (Santa Cruz Biotechnology, sc29410) and non-targeting control (scramble) siRNAs (Santa Cruz Biotechnology, sc37007 & Dharmacon, D-001210) were commercially provided. Human scalp keratinocytes (3×10^5 cells per well) in 12-well plates were transfected with 20 nM of siRNAs using Lipofectamine® RNAiMAX (Thermo Fisher Scientific, #13778150) following the manufacturer's directions. Poly (I:C) (0.1 μg per ml) was applied to transfected cells and incubated for 48 hrs. At the end of transfection period, cells were harvested to isolate protein to perform qRT-PCR, western blot, and RA mass spectrometry.
# IL6 treatment. Recombinant human interleukin 6 (rhIL6) (R&D system; 206-IL-010) was treated into human scalp keratinocytes with dose-dependent manners (0, 10, 50, and 100 ng per ml) for 2 days. Cells were harvested and lysates were used for RA measurement.
# Determination of Retinoid Levels. For in vitro samples, human scalp keratinocytes were incubated with 0.5 μg per ml of Poly (I:C) for 48 hrs or siRNAs-transfected cells were incubated with 0.1 μg per ml of Poly (I:C) for 48 hrs. For in vivo samples, skin was analyzed from wild-type and Tlr3^−/− unwounded and wounded skin where wound regions (center and edge area) were cut by scalpel. Human skin was analyzed for retinoids with and without CO2 laser treatment as described. All samples were frozen at collection and stored at −80° C. until extraction. For in vitro experiments, media and cell pellets were analyzed separately. For in vivo experiments, tissues were homogenized in saline. Extraction of retinoids was performed under yellow lights using a two-step liquid-liquid extraction that has been described in detail previously using 4,4-dimethyl-RA as an internal standard for RA and retinyl acetate as an internal standard for retinol and total retinyl ester^43-46. For the extraction of retinoids, 1 to 3 ml of 0.025 M KOH in ethanol was added to tissue homogenates (in vivo) or cell culture (in vitro) samples. Then 10 ml hexane (for in vivo tissue sample) or 5 ml hexane (for in vitro cell culture sample) was added to the aqueous ethanol phase. The samples were vortexed and centrifuged for 1 to 3 min at 1000 rpm in a Dynac centrifuge (Becton Dickinson) to facilitate phase separation and pellet precipitated protein. The hexane (top) phase containing nonpolar retinoids (ROL and RE) was removed. 4 M HCl (60-180 μl) was added to the remaining aqueous ethanol phase, samples were vortexed, and then polar retinoids (RA) were removed by extraction with a second 5-10 ml aliquot of hexane as described above. […]
# Levels of RA were determined by liquid chromatography-multistage tandem mass spectrometry (LC-MRM^3) which is an LC-MS/MS method utilizing two distinct fragmentation events for enhanced selectivity^43. RA was measured using a Shimadzu Prominence UFLC XR liquid chromatography system (Shimadzu, Columbia, MD) coupled to an AB Sciex 5500 or 6500+ QTRAP hybrid triple quadrupole mass spectrometer (AB Sciex, Framingham, MA) using atmospheric pressure chemical ionization (APCI) operated in positive ion mode as previously described^43. […]
# Aldh1a2, Aldh1a3 = assay: qRT-PCR of Aldh1a2 and Aldh1a3 in mouse wounds; type: in vivo
# Protocol: as §1
# RNA isolation and quantitative real-time PCR (qRT-PCR). For cells, total RNA was isolated from cultured keratinocytes using RNeasy Mini Kit (Qiagen, Valencia, CA, #74106) and treated with DNase I (Qiagen, #79254) to eliminate genomic DNA. For tissue, total RNA was isolated by following the manual of Direct-zol™ RNA MiniPrep Plus kit (Zymo Research, R2073). The purity and concentration of RNAs were analyzed using a NanoDrop2000c (Thermo Fisher Scientific, ND-2000c). Following reverse transcriptase reactions using high-capacity RNA to cDNA kit (Life Technologies), qRT-PCR was performed to measure target genes using TaqMan probes and Fast reaction master mix reagents (Life Technologies). Relative expression of mRNAs was analyzed by the cycle of threshold (Ct) value of target genes and quantified by normalizing to ribosomal protein large P0 (RPLP0) for human keratinocytes and to β-Actin for mouse keratinocytes or tissues as housekeeping genes using the ΔΔCt method^48.
Molecule,Krt15 immunostaining in wounds (wound beds),"Poly (I:C)-induced RA accumulation ([1]; TLR3 siRNA-transfected human keratinocytes, 0.1 μg per ml, 48 hrs)",RA synthesis ([1]; human keratinocytes transfected with MDA5- or RIG-I-siRNA),retinol (ROL) and retinyl ester (RE) quantities ([1]; human keratinocytes treated with Poly (I:C)),"RA abundance ([1]; human keratinocytes, cell lysates and culture media, 0.5 μg per ml, 48 hrs)","Aldh1a3 and Aldh1a2 induction in early wounds (Aldh1a2, Aldh1a3; Tlr3−/− mice)","Aldh1a2 transcription during wound healing (Aldh1a2, Aldh1a3; WT mice)","Aldh1a3 transcription during wound healing (Aldh1a2, Aldh1a3; WT mice)"
"CC1=C(/C=C/C(C)=C/C=C/C(C)=C/C(=O)O)C(C)(C)CCC1 [RA, all-trans-retinoic acid]",induces prominent Krt15,–,–,–,–,–,–,–
Polyinosinic-polycytidylic acid [Poly (I:C)],–,dependent on TLR3,still induce RA synthesis,not modified,markedly increased,neither is induced,did not show a similar pattern,induced
